Test results published in PubChem BioAssay (NCI).
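Values below derive from 48-hour exposures of cells grown in 96-well plates, with endpoints linearly interpolated between the two concentrations bracketing the appropriate inhibition level. Abbreviation: GI50, concentration required for 50% inhibition of growth. TGI marks complete inhibition of growth.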

What was measured:
Assay in all cases: NCI anticancer screen, dose series, 48 h
DU-145 prostate = system: DU-145 prostate
SK-MEL-2 melanoma = system: SK-MEL-2 melanoma
786-0 renal = system: 786-0 renal
K-562 leukemia = system: K-562 leukemia
LOX IMVI melanoma = system: LOX IMVI melanoma
NCI-H226 lung = system: NCI-H226 lung
SNB-75 CNS = system: SNB-75 CNS
EKVX NSCLC = system: EKVX NSCLC
SF-295 CNS = system: SF-295 CNS
UACC-257 melanoma = system: UACC-257 melanoma

Structure (SMILES) | GI50 (DU-145 prostate) [µM] | TGI (DU-145 prostate) [µM] | GI50 (SK-MEL-2 melanoma) [µM] | TGI (SK-MEL-2 melanoma) [µM] | GI50 (786-0 renal) [µM] | TGI (786-0 renal) [µM] | GI50 (K-562 leukemia) [µM] | TGI (K-562 leukemia) [µM] | GI50 (LOX IMVI melanoma) [µM] | TGI (LOX IMVI melanoma) [µM] | GI50 (NCI-H226 lung) [µM] | TGI (NCI-H226 lung) [µM] | GI50 (SNB-75 CNS) [µM] | TGI (SNB-75 CNS) [µM] | GI50 (EKVX NSCLC) [µM] | TGI (EKVX NSCLC) [µM] | GI50 (SF-295 CNS) [µM] | TGI (SF-295 CNS) [µM] | GI50 (UACC-257 melanoma) [µM] | TGI (UACC-257 melanoma) [µM]
COc1cc(/C=C2\CC3C4CC=C5C[C@@H](OC(C)=O)CC[C@]5(C)C4CC[C@]3(C)C2=O)ccc1OCCN1CCCCC1 (some centres undefined) | 5.18 | 17.4 | 10.1 | 28.4 | 1.66 | 3.1 | 1.23 | 3.31 | 1.26 | 3.31 | 11.8 | 28.6 | 27.3 | 56.9 | 13.7 | 27.4 | 2.41 | 5.08 | 3.85 | > 100
Cc1c(-c2cnccn2)ssc1=S | – | > 100 | – | > 100 | – | > 77.4 | – | > 100 | – | 98.8 | – | > 100 | – | 59.8 | – | 90.9 | – | > 95.1 | – | 38.1
COc1ccc(Nc2nc3cc(N)cc(N)c3nc2-c2ccccc2)cc1 | 39.3 | > 100 | 15.6 | 31.4 | 16 | 31.2 | 29.8 | > 100 | 16.1 | 29.8 | 23.8 | 98.4 | 14.6 | 42.6 | 26 | > 100 | 31.9 | > 100 | – | 27.5
COc1ccc(C2(Cl)c3ccccc3N(c3ccccc3)c3ccccc32)cc1 | 0.536 | 2.04 | 0.377 | 1.85 | 0.618 | 2.06 | 0.335 | 12 | 0.282 | 1.32 | 1.01 | 3.55 | 0.359 | 2.05 | 0.25 | 2.9 | 0.301 | 1.85 | 0.797 | 3.67
COc1c/c(=C2\C=c3ccccc3=N2)[nH]/c1=C\c1[nH]c(C)cc1C | 0.0174 | > 81.4 | 0.0753 | 2.27 | 0.048 | 4.21 | 0.0685 | 8.33 | < 0.01 | – | 16.5 | > 100 | 0.175 | 4.19 | 0.601 | > 94.4 | 0.034 | 0.593 | 0.628 | 32.7
COc1cc2c(cc1OC(C)C)[C@H](c1ccc(Cl)cc1)N(c1ccc(N(C)CC3CCC(N4CCN(C)C(=O)C4)CC3)cc1)C(=O)C2 (some centres undefined) | 5.3 | 11.2 | 5.87 | 12.1 | 2.85 | 8.73 | 3.56 | 16.9 | 0.516 | 2.19 | 0.311 | 1.7 | 2.95 | 8.68 | 1.93 | 7.81 | 2.16 | 5.46 | 1.4 | 6.92
CNC(=O)c1ccc(N2C(=S)N(c3cnc(C#N)c(C(F)(F)F)c3)C(=O)C23CCC3)cc1F | > 100 | > 100 | > 100 | > 100 | > 100 | > 100 | > 100 | > 100 | > 100 | > 100 | > 100 | > 100 | > 100 | > 100 | > 100 | > 100 | > 100 | > 100 | > 95 | > 100
CCc1nc(N)nc(N)c1-c1ccc(Cl)c([N+](=O)[O-])c1 | – | > 100 | – | 90.5 | – | > 100 | – | > 100 | – | > 100 | – | > 100 | – | > 100 | – | > 100 | – | > 70.4 | – | > 100
Cc1onc(-c2ccccc2)c1C(=O)N/N=C/c1cc(Cl)cc(Cl)c1O | 6.72 | > 100 | 11.5 | 56 | 5.01 | 50.7 | 4.58 | 55.9 | 2.93 | 32.3 | 8.47 | 72.7 | 6.75 | > 100 | – | – | 2.05 | 11.3 | 3.47 | 27.3
CC(C)C[C@H](NC(=O)CNC(=O)c1cc(Cl)ccc1Cl)B(O)O | < 0.0262 | 15.3 | < 0.0145 | 0.0364 | 0.0278 | 0.814 | 0.03 | 1.21 | 0.0224 | 0.0597 | 0.416 | 5.09 | 0.0256 | 0.124 | – | – | 0.0252 | 0.1 | 0.0153 | 0.0492
